# Square brackets hold non-standard residues; d marks the D form. Ends that are not written are not given here. Peptide text beside a SMILES is read from it. * marks the point of attachment. For = O=C*
# Legend:
# [1] = system: Fpr2^-/- neutrophils; assay: NADPH-oxidase activity in neutrophils from wild type versus Fpr2-/- mice; format: cell-based; settings: mouse neutrophils; from WT versus Fpr2-/- cells
# Description: Mice (10–16 weeks of age) were killed by cervical dislocation, the femurs and tibias were removed and freed of soft tissue attachments, and the extreme distal tip of each extremity was cut off. KRG without Ca^2+ and Mg^2+ (KRG-) was forced through the bone by using a 1-ml syringe with a 27-gauge needle. After dispersing cell clumps and removing the debris, the bone marrow granulocytes were isolated according to an earlier described procedure [26] with some modifications. Briefly, cell suspensions in 2 ml of KRG (−) were laid on top of a three-layer Percoll gradient (1.095, 1.085, and 1.070 g/ml). The density of each Percoll solution was verified using density marker beads. […] The cell number and population of bone marrow cells were determined by flow cytometry.
# NADPH-oxidase activity was determined using isoluminol and HRP-enhanced chemiluminescence (CL) systems that allow for the determination of superoxide production [27, 28]. […] The light emission was recorded continuously.
# Naïve bone marrow cells produce very low level of superoxide upon stimulation and to increase this production, the cells were routinely primed for one hour at RT follow by mouse recombinant TNF-α (10 ng/ml, final concentration) priming for a period of 20 min at 37°C, after which the cells were stimulated and ROS production was determined as described above.
# [2] = system: FPR1; assay: NADPH-oxidase activity in human neutrophils pre-incubated with the FPR1 antagonist cyclosporine H; format: cell-based; settings: for Effect of cyclosporine H on the peptide-induced activity: human neutrophils pre-incubated 5 min at 37°C with 1 μM cyclosporine H (FPR1 antagonist); for Preferred receptor: human neutrophils, from cyclosporine H / PBP10 sensitivity
# Protocol: (§1) NADPH-oxidase activity was determined using isoluminol and HRP-enhanced chemiluminescence (CL) systems that allow for the determination of superoxide production. […] The tubes containing 4 U HRP and 10 μg/ml isoluminol together with the cells were equilibrated in the Biolumat for 10 min at 37°C, after which the stimulus (100 μl) was added. The light emission was recorded continuously.
# (§2) Neutrophil NADPH-oxidase activity was measured by an isoluminol/HPR chemiluminescence system. […] (10 nM; time for addition indicated by an arrow). […] (1 μM) in the presence or absence (control) of FPR specific inhibitors. Abscissa, Time of study (min); ordinate, superoxide production (in arbitrary light units, cpmx10^-6). […] Data are expressed as mean ± SD from four independent experiments. Abscissa, agonist concentration (M); ordinate, superoxide production (percent of max).
# [3] = system: H2-M3; settings: crystal structure study; cited from earlier work
# Description: Much less is known about the murine Fprs. It is clear that mouse neutrophils express orthologous of FPR1 and FPR2 (Fpr1 and Fpr2, respectively), but the pharmacological similarities/differences between the human and mouse neutrophil receptors have not been characterized in detail. […] In addition to Fprs, another immune response system, the H2-M3 complex, has evolved in ...
# [4] = target: T1, human neutrophils (Homo sapiens, UniProt P21462); assay: NADPH-oxidase activity (superoxide production), isoluminol/HRP chemiluminescence, human neutrophils; format: cell-based; settings: for Concentration needed to induce full NADPH-oxidase activity: efficacy close to that of fMIFL; for EC50, NADPH-oxidase activity (superoxide production): isoluminol/HRP chemiluminescence, 37°C, peak response as percent of maximal response, mean of 3-4 independent experiments
# T1 sequence (P21462 1-350): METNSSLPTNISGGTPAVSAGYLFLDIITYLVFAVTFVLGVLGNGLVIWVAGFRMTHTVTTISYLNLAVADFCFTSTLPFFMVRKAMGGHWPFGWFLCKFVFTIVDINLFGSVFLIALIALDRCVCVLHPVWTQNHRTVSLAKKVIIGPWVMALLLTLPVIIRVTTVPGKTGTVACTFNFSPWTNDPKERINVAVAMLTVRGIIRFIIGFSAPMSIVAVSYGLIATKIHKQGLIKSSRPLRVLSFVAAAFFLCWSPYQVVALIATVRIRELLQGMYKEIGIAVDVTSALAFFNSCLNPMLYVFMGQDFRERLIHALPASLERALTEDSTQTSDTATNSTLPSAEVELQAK
# [5] = system: FPR2; assay: NADPH-oxidase activity in human neutrophils pre-incubated with the FPR2 antagonist PBP10; format: cell-based; settings: human neutrophils pre-incubated 5 min at 37°C with 1 μM PBP10 (FPR2 antagonist)
# Protocol: as §1, §2
# [6] = target: T2, bone marrow derived mouse neutrophils (Mus musculus, UniProt P33766); settings: for EC50, NADPH-oxidase activity (superoxide production): TNF-α primed bone marrow derived mouse neutrophils, isoluminol/HRP chemiluminescence, 37°C, peak response as percent of maximal response, mean of 3-4 independent experiments; for Relative potency, mouse versus human neutrophils: comparison of EC50 values of NADPH-oxidase activation in the two species
# T2 sequence (P33766 1-364): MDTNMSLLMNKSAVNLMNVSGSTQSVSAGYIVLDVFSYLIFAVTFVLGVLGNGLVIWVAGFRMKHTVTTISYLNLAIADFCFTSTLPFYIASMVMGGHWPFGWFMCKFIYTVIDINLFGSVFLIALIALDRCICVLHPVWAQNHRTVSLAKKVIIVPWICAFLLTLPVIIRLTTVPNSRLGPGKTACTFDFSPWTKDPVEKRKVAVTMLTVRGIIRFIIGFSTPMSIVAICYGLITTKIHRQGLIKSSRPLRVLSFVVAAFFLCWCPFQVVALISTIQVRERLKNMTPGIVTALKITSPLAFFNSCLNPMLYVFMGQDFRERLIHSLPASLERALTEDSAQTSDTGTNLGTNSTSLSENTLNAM
# [7] = system: M3; settings: high-, medium- and low-binders by induction of M3 expression on P388-M3 transfected cells; cited from earlier work
# [8] = target: formyl peptide receptor 1 (human) (human (endogenous in neutrophils)) (UniProt P21462)
# [9] = target: formyl peptide receptor 1 (mouse) (mouse (endogenous in bone marrow neutrophils)) (UniProt P33766)
# [10] = target: formyl peptide receptor 1 (human) (human (endogenous in neutrophils)) (UniProt P21462); remark: listed apart in the source
# [11] = target: formyl peptide receptor 1 (human) (human (endogenous in neutrophils)) (UniProt P21462); remark: listed apart in the source
molecule,measurement,setting,value
CC[C@H](C)[C@H](NC(=O)[C@H](CC(N)=O)NC(=O)[C@@H](NC(=O)[C@H](Cc1ccccc1)NC(=O)[C@H](Cc1ccc(O)cc1)NC(=O)[C@H](CCSC)NC=O)[C@@H](C)CC)C(=O)N[C@@H](CC(C)C)C(=O)N[C@H](C(=O)N[C@@H](CC(C)C)C(=O)O)[C@@H](C)O (For-MYFINILTL-OH; C-terminus assumed),Preferred receptor,[1],Fpr1
same,Effect of cyclosporine H on the peptide-induced activity,[2],inhibited
same,Preferred receptor,[2],FPR1
same,Preference of H2-M3 for binding the N-formylated over the non-formylated peptide,[3],10^4 fold
same,Agonist efficacy (full/partial),"[4]; human neutrophils, compared with fMLF or fMIFL",full agonist
same,Concentration needed to induce full NADPH-oxidase activity,[4]; human neutrophils,around 100 nM
same,Effect of PBP10 on the peptide-induced activity,[5],no inhibition
same,EC50,[6],0.014 µM
same,"EC50, NADPH-oxidase activity (superoxide production)",[6],low nM range
GYFINILTL,Neutrophil activation,[4],Neither human nor mouse neutrophils could be activated
same,Neutrophil activation,[6],Neither human nor mouse neutrophils could be activated
MYFINILTL,Effect of cyclosporine H on the peptide-induced activity,[2],not by cyclosporine H
same,Preferred receptor,[2],FPR2
same,NADPH-oxidase activity induced,"[4]; human neutrophils, concentrations lower than 1 μM",No activity
same,NADPH-oxidase activity induced,"[4]; human neutrophils, peptide 1 μM (Fig 1A inset)",very low level of activity
same,Effect of PBP10 on the peptide-induced activity,[5],inhibited by PBP10
same,NADPH-oxidase activity induced,[6],No activity
fGYFINILTL,Neutrophil activation,[4],Neither human nor mouse neutrophils could be activated
same,Neutrophil activation,[6],Neither human nor mouse neutrophils could be activated
fMFFLDA [formylated peptide from a Mycobacterium tuberculosis ribonuclease],"Relative potency, mouse versus human neutrophils",[6],very similar in the two species
same,M3 binding affinity group,[7],middle range
fMILLV [formylated peptide from a Mycobacterium tuberculosis transport permease],Concentration needed to induce full NADPH-oxidase activity,[4]; human neutrophils,around 100 nM
same,"EC50, NADPH-oxidase activity (superoxide production)",[4]; human neutrophils,low nM range
same,"EC50, NADPH-oxidase activity (superoxide production)",[6],low nM range
same,"Relative potency, mouse versus human neutrophils",[6],equally potent
same,M3 binding affinity group,[7],highest M3 affinity
fMIVIL [formylated peptide from a not identified protein in Listeria monocytogenes],"EC50, NADPH-oxidase activity (superoxide production)",[4]; human neutrophils,low nM range
same,"EC50, NADPH-oxidase activity (superoxide production)",[6],low nM range
same,"Relative potency, mouse versus human neutrophils",[6],order of potency was reversed
same,M3 binding affinity group,[7],highest M3 affinity
fMIVVLV [formylated peptide from a Mycobacterium tuberculosis pyrophosphohydrolase],"EC50, NADPH-oxidase activity (superoxide production)",[4]; human neutrophils,low nM range
same,"EC50, NADPH-oxidase activity (superoxide production)",[6],low nM range
same,"Relative potency, mouse versus human neutrophils",[6],more potent on mouse cells than on human cells
same,M3 binding affinity group,[7],highest M3 affinity
fMLFAAL [formylated peptide from a Mycobacterium tuberculosis permease],Potency rank among the peptides,[4]; human neutrophils,most potent to activate human neutrophils
same,Concentration needed to induce full NADPH-oxidase activity,[4]; human neutrophils,around 100 nM
same,"Relative potency, mouse versus human neutrophils",[6],potencies were reversed
same,M3 binding affinity group,[7],lowest binding affinity
fMWYYLF [formylated peptide from a Mycobacterium tuberculosis acyltransferase],"Relative potency, mouse versus human neutrophils",[6],more potent for murine cells than for human cells
same,Potency rank among the peptides,[6]; mouse neutrophils,most potent to activate mouse neutrophils
same,M3 binding affinity group,[7],lowest binding affinity
For-[dM]YFINILTL [fmYFINILTL],EC50 of superoxide release from human neutrophils,[8],0.2 µM
For-MFLIDV [fMFLIDV],EC50 of NADPH-oxidase activity in mouse neutrophils,[9],0.001 µM
same,EC50 of NADPH-oxidase activity in human neutrophils,[10],0.1 µM
For-MYFINILTL [f…],"EC50 of NADPH-oxidase activity (superoxide production, isoluminol/HRP chemiluminescence) in human neutrophils",[11],0.005 µM

# From paper PMC5132201, “Formylated MHC Class Ib Binding Peptides Activate Both Human and Mouse Neutrophils Primarily through Formyl Peptide Receptor 1” (PLoS ONE, 2016)
